Measurements reported in article PMC6514771, “A Stapled Peptide Mimic of the Pseudosubstrate Inhibitor PKI Inhibits Protein Kinase A” (Molecules, 2019).

Tests used:
[1] = target: human PKA catalytic isoform Cβ1 (PKA-Cβ1) (Homo sapiens, UniProt P22694); experiment: Fluorescence polarization (FP) direct binding; settings: FAM-labeled negative control peptide; three independent measurements with three protein preparations
[2] = target: human PKA catalytic isoform Cα (PKA-Cα) (Homo sapiens, UniProt P17612); experiment: Fluorescence polarization (FP) direct binding; settings: FAM-labeled negative control peptide; three independent measurements with three protein preparations

βA-TTY*DFI*SGRTGFFNAIHD (sidechain bridge or staple) [negative control peptide]
binding to PKA-Cb (FP) [1]: No binding | binding to PKA-Ca (FP) [2]: No binding
